The source made the active and inactive calls. The calls are words filed in the database; no cut-off is given here.
What was measured:
[1] = test system: HCT-116; test: cells; details: Homo sapiens, HCT-116, 72 h
Description: Antiproliferative activity against human HCT-116 cells assessed as inhibition of cell growth measured after 72 hrs by CCK-8 method

[2] = test system: HCT-116; test: Upregulation of slug expression in human HCT-116 cells measured after 48 hrs by Western blot analysis; assay type: functional, cell-based
[3] = Tmax in Sprague-Dawley rat at 15 mg/kg, po by LC-MS/MS analysis; assay type: ADME, organism-based; details: in vivo
[4] = Cmax in Sprague-Dawley rat at 5 mg/kg, iv by LC-MS/MS analysis; assay type: ADME, organism-based; details: in vivo
[5] = AUC (0 to 12hrs) in Sprague-Dawley rat at 15 mg/kg, po by LC-MS/MS analysis; assay type: ADME, organism-based; details: in vivo
[6] = Clearance in Sprague-Dawley rat at 5 mg/kg, iv by LC-MS/MS analysis; assay type: ADME, organism-based; details: in vivo
[7] = AUC (0 to 12hrs) in Sprague-Dawley rat at 5 mg/kg, iv by LC-MS/MS analysis; assay type: ADME, organism-based; details: in vivo
[8] = Cmax in Sprague-Dawley rat at 15 mg/kg, po by LC-MS/MS analysis; assay type: ADME, organism-based; details: in vivo
[9] = Half life in Sprague-Dawley rat at 5 mg/kg, iv by LC-MS/MS analysis; details: in vivo
[10] = Oral bioavailability in Sprague-Dawley rat at 15 mg/kg by LC-MS/MS analysis; assay type: ADME, organism-based; details: in vivo
[11] = MRT (0 to 12 hrs) in Sprague-Dawley rat at 5 mg/kg, iv by LC-MS/MS analysis; assay type: ADME, organism-based; details: in vivo
[12] = MRT (0 to 12hrs) in Sprague-Dawley rat at 15 mg/kg, po by LC-MS/MS analysis; assay type: ADME, organism-based; details: in vivo
[13] = Half life in Sprague-Dawley rat at 15 mg/kg, po by LC-MS/MS analysis; details: in vivo
[14] = test system: HCT-116; test: Induction of cell cycle arrest in human HCT-116 cells assessed as effect on number of cells at G1 phase at 5 to 20 uM measured after 48 hrs by PI staining based flow cytometry analysis; assay type: functional; details: dose 5-20 µM
[15] = test system: HCT-116; test: Inhibition of cell migration in human HCT-116 cells at 5 to 20 uM measured after 24 to 48 hrs by microscopy based analysis; assay type: functional; details: dose 5-20 µM, time 24-48 hrs
[16] = test system: DLD-1; test: cells; details: Homo sapiens, DLD-1, 72 h
Description: Antiproliferative activity against human DLD-1 cells assessed as inhibition of cell growth measured after 72 hrs by CCK-8 method

[17] = test system: HCT-116; test: Induction of apoptosis in human HCT-116 cells assessed as cell death at 20 uM measured after 48 hrs by annexin V-FITC/7-AAD based flow cytometry analysis relative to control; assay type: functional
[18] = test system: HCT-116; test: Induction of apoptosis in human HCT-116 cells assessed as apoptotic rate at medium dose measured after 48 hrs by annexin V-FITC/7-AAD based flow cytometry analysis relative to control; assay type: functional
[19] = test system: HCT-116; test: Induction of cell cycle arrest in human HCT-116 cells assessed as increase in number of cells at G2 phase at high dose measured after 48 hrs by PI staining based flow cytometry analysis; assay type: functional
[20] = target: T1, ATP-dependent Clp protease proteolytic subunit, mitochondrial (Homo sapiens, UniProt Q16740); test: Binding affinity to human ClpP expressed in Escherichia coli assessed as dissociation constant by ITC method
T1 sequence (Q16740 whole entry): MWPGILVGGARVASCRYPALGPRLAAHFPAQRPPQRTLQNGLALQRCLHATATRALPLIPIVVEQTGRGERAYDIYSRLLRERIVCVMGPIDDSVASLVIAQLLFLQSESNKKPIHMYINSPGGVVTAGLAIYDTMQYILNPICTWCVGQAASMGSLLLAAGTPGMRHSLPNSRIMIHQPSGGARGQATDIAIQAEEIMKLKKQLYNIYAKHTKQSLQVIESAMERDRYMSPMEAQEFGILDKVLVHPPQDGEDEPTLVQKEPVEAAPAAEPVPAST

[21] = test system: HCT-116; test: Inhibition of mitochondrial function in human HCT-116 cells assessed as reduction in ATP production; assay type: functional, cell-based
[22] = Antiproliferative activity against rat H9c2 cells assessed as inhibition of cell growth measured after 72 hrs by CCK-8 method; assay type: toxicity, cell-based
[23] = target: T1, ATP-dependent Clp protease proteolytic subunit, mitochondrial; test: Agonist activity at human ClpP expressed in Escherichia coli using AC-WLA-AMC as substrate measured every 5 mins for 1 hr by fluorescence based analysis
[24] = test system: HCT-116; test: Induction of ROS generation in human HCT-116 cells assessed as increase in intracellular ROS level measured after 48 hrs DCFH-DA staining based analysis; assay type: functional, cell-based
[25] = target: T1, ATP-dependent Clp protease proteolytic subunit, mitochondrial; details: filed as agonist, dose 100.0 µM, time 30.0 min
[26] = Antiproliferative activity against human HCoEpiC cells assessed as inhibition of cell growth measured after 72 hrs by CCK-8 method; assay type: toxicity, cell-based
[27] = test system: SW-620; test: cells; details: Homo sapiens, SW-620, 72 h
Description: Antiproliferative activity against human SW-620 cells assessed as inhibition of cell growth measured after 72 hrs by CCK-8 method

[28] = test system: HCT-15; test: cells; details: Homo sapiens, HCT-15, 72 h
Description: Antiproliferative activity against human HCT-15 cells assessed as inhibition of cell growth measured after 72 hrs by CCK-8 method

[29] = test system: SW480; test: cells; details: Homo sapiens, SW480, 72 h
Description: Antiproliferative activity against human SW480 cells assessed as inhibition of cell growth measured after 72 hrs by CCK-8 method

[30] = Antiproliferative activity against human L02 cells assessed as inhibition of cell growth measured after 72 hrs by CCK-8 method; assay type: toxicity, cell-based
[31] = test system: HCT-116; test: Induction of apoptosis in human HCT-116 cells measured after 48 hrs by annexin V-FITC/7-AAD based flow cytometry analysis; assay type: functional, cell-based
[32] = test system: Cell membrane; test: Induction of mitochondrial membrane potential loss in human HCT-116 cells assessed as increase in green fluorescence at high dose measured after 48 hrs by JC-1 staining based microscopy analysis; assay type: cell membranes
[33] = test system: HCT-116; test: Induction of cell cycle arrest in human HCT-116 cells assessed as increase in number of cells at G2 phase at 5 uM measured after 48 hrs by PI staining based flow cytometry analysis; assay type: functional
[34] = test system: HCT-116; test: Antiproliferative activity against ClpP knockdown human HCT-116 cells assessed as fold increase in IC50; assay type: functional
[35] = Antiproliferative activity against HEK293 cells assessed as inhibition of cell growth measured after 72 hrs by CCK-8 method; assay type: toxicity, cell-based; details: human
[36] = test system: HCT-116; test: Induction of apoptosis in human HCT-116 cells assessed as apoptotic rate at low dose measured after 48 hrs by annexin V-FITC/7-AAD based flow cytometry analysis relative to control; assay type: functional
[37] = test system: HCT-116; test: Antiproliferative activity against human HCT-116 cells assessed reduction in clone formation measured after 48 hrs by crystal violet staining based analysis; assay type: functional, cell-based

CC(NC(=O)c1cc(C(F)(F)F)cc(C(F)(F)F)c1)C(=O)Nc1ccc(Cl)cc1 (stereo unspecified)
IC50 [1]: 58.4 µM

O=C(Nc1cccc(Cl)c1)C1CCCN(C(=O)c2cc(C(F)(F)F)cc(C(F)(F)F)c2)C1 (stereo unspecified)
IC50 [1]: 30.5 µM

O=C(NCCc1ccc(Cl)cc1)C1CCCN(C(=O)c2cc(C(F)(F)F)cc(C(F)(F)F)c2)C1 (stereo unspecified)
IC50 [1]: 56.5 µM

O=C(Nc1ccncc1)C1CCCN(C(=O)c2cc(C(F)(F)F)cc(C(F)(F)F)c2)C1 (stereo unspecified)
IC50 [1]: 59.7 µM

O=C(Nc1ccc(Cl)cc1)C1CCCN(C(=O)c2cccc(-c3ccco3)c2)C1 (stereo unspecified)
IC50 [1]: 76.5 µM

O=C(NCc1ccc2c(c1)OCO2)C1CCCN(C(=O)c2cc(C(F)(F)F)cc(C(F)(F)F)c2)C1 (stereo unspecified)
IC50 [1]: 95.3 µM

O=C(NCc1ccc(C(F)(F)F)cc1)C1=CCCN(Cc2cc(C(F)(F)F)cc(C(F)(F)F)c2)C1
IC50 [1]: 25.3 µM

N#Cc1cccc(CN2CCCC(C(=O)Nc3ccc(Cl)cc3)C2)c1 (stereo unspecified)
IC50 [1]: 20.3 µM

O=C(NCc1ccc(C(F)(F)F)cc1)C1=CCCN(Cc2ccccc2)C1
Activity [2]: Active
IC50 [1]: 50.4 µM

N#Cc1cccc(CN2CCCC(C(=O)NCc3ccc(C(F)(F)F)cc3)C2)c1 (stereo unspecified)
IC50 [1]: 20.4 µM

O=C(NCCNC(=O)c1cc(C(F)(F)F)cc(C(F)(F)F)c1)c1ccc(Cl)cc1
IC50 [1]: 76.9 µM

O=C(Nc1ccc(Cl)cc1)c1cccc(NC(=O)c2cc(C(F)(F)F)cc(C(F)(F)F)c2)c1
IC50 [1]: 25.3 µM

O=C(CCNC(=O)c1cc(C(F)(F)F)cc(C(F)(F)F)c1)Nc1ccc(Cl)cc1
IC50 [1]: 64.5 µM

O=C(NCc1ccc(C(F)(F)F)cc1)C1=CCCN(Cc2ccc(F)c(F)c2)C1
IC50 [1]: 25.6 µM

Cc1ccccc1CN1C(=O)C2=C(CCN(Cc3ccccc3)C2)N2CCN=C12 [DORDAVIPRONE]
Tmax [3]: 24 min
Cmax [4]: 2770 ng/mL
AUC(0-t) [5]: 894 ng·h/mL
clearance [6]: 42.7 mL/min/kg
AUC(0-t) [7]: 1960 ng·h/mL
Cmax [8]: 566 ng/mL
half-life [9]: 54 min
bioavailability [10]: 15.3%
MRT last [11]: 54 min
MRT last [12]: 90 min
half-life [13]: 66 min

O=C(Nc1ccc(C(F)(F)F)cc1)C1CCCN(C(=O)c2cc(C(F)(F)F)cc(C(F)(F)F)c2)C1 (stereo unspecified)
IC50 [1]: 30 µM

N#Cc1cccc(CN2CCCC(C(=O)NCc3ccc4c(c3)OCO4)C2)c1 (stereo unspecified)
IC50 [1]: 50 µM

N#Cc1cccc(CN2CCC=C(C(=O)Nc3ccc(Cl)cc3)C2)c1
IC50 [1]: 2.5 µM

O=C(Nc1ccc(Oc2ccccc2)cc1)C1CCCN(C(=O)c2cc(C(F)(F)F)cc(C(F)(F)F)c2)C1 (stereo unspecified)
IC50 [1]: 40.1 µM

O=C(NCc1ccccc1)C1=CCCN(Cc2ccccc2)C1
IC50 [1]: 55.4 µM

N#Cc1cccc(CN2CCCC(C(=O)NCc3ccc(Cl)c(Cl)c3)C2)c1 (stereo unspecified)
IC50 [1]: 25.3 µM

O=C(Nc1cc(Cl)c(Cl)c(Cl)c1)C1CCCN(C(=O)c2cc(C(F)(F)F)cc(C(F)(F)F)c2)C1 (stereo unspecified)
IC50 [1]: 16.4 µM

N#Cc1cccc(CN2CCCC(C(=O)NCc3ccc4ccccc4c3)C2)c1 (stereo unspecified)
IC50 [1]: 48.3 µM

N#Cc1cccc(CN2CCCC(C(=O)NCc3ccc(Cl)cc3Cl)C2)c1 (stereo unspecified)
IC50 [1]: 40.9 µM

O=C(NCc1ccc(C(F)(F)F)cc1)C1CCCN(C(=O)c2cc(C(F)(F)F)cc(C(F)(F)F)c2)C1 (stereo unspecified)
IC50 [1]: 25.1 µM

O=C(NCc1ccc(C(F)(F)F)cc1)C1=CCCN(C(=O)c2cc(C(F)(F)F)cc(C(F)(F)F)c2)C1
IC50 [1]: 20.5 µM

O=C(Nc1ccc(Cl)c(Cl)c1)C1CCCN(C(=O)c2cc(C(F)(F)F)cc(C(F)(F)F)c2)C1 (stereo unspecified)
IC50 [1]: 15.7 µM

CC1(C)CCC(NC(=O)C2CCCN(C(=O)c3cc(C(F)(F)F)cc(C(F)(F)F)c3)C2)CC1 (stereo unspecified)
IC50 [1]: 80.4 µM

O=C(Nc1ccc(Cl)cc1)C1CCCN(C(=O)c2cc(C(F)(F)F)cc(C(F)(F)F)c2)C1 (stereo unspecified)
IC50 [1]: 16.7 µM

O=C(Nc1ccc(Cl)cc1)C1=CCCN(Cc2ccccc2)C1
IC50 [1]: 83.5 µM

O=C(NCc1ccc(C(F)(F)F)cc1)C1=CCCN(Cc2cccc(F)c2)C1
IC50 [1]: 20.1 µM

O=C(Nc1ccc(Cl)cc1)C1CCCN(C(=O)Cc2cc(Cl)ccc2F)C1 (stereo unspecified)
IC50 [1]: 67.5 µM

CC(ONC(=O)c1cc(C(F)(F)F)cc(C(F)(F)F)c1)C(=O)Nc1ccc(Cl)cc1 (stereo unspecified)
Activity [14]: inactive
inhibition [15]: Active
IC50 [16]: 29.8 µM
Activity [17]: 40%
Activity [18]: 22%
Activity [19]: ~40%
Kd [20]: 8.41 µM
inhibition [21]: Active
IC50 at 72 h [22]: 35.5 µM
EC50 [23]: 0.0105 µM
Activity [24]: Active
ΔTm [25]: 4 °C
IC50 at 72 h [26]: 61.7 µM
IC50 [27]: 15.5 µM
IC50 [28]: 37.5 µM
IC50 [29]: 41.3 µM
IC50 at 72 h [30]: 30.4 µM
Activity [31]: Dose-Dependent Effect
Activity [32]: Active
IC50 [1]: 20.5 µM
Activity [33]: 20%
fold change (FC) [34]: 1.5
IC50 at 72 h [35]: 55.4 µM
Activity [36]: 15%
Activity [37]: Dose-Dependent Effect

CC(C)(C)c1ccc(CNC(=O)C2CCCN(Cc3cccc(C#N)c3)C2)cc1 (stereo unspecified)
IC50 [1]: 40 µM

N#Cc1cccc(CN2CCCC(C(=O)NCc3ccc(Cl)cc3)C2)c1 (stereo unspecified)
IC50 [1]: 22.1 µM

O=C(Nc1ccc(Cl)cc1)C1=CCCN(C(=O)c2cc(C(F)(F)F)cc(C(F)(F)F)c2)C1
IC50 [1]: 40.3 µM
